Data set [1] deals with PD1-Fc. The data set is described as follows: Labeling of PD1-Fc via CuAAC and Cu-free click chemistry, detection by Western blot. The following applies: 1 h; for Western blot labeling signal: CuAAC with biotin-alkyne 100 μM or BARAC-biotin 100 μM. As to the method: FIG. 13. Comparison of the efficiency of the CuAAC and BARAC-mediated copper-free click chemistry in labeling recombinant proteins and crude cell lysates. Western blot analysis of PD1-Fc isolated from HEK cells treated with Ac4ManNAz (top panel). Total protein loading was confirmed by Coomassie staining (bottom panel). Reaction conditions for CuAAC: biotin-alkyne (100 μM) in the presence of sodium ascorbate (2.5 mM), CuSO4 (250 μM) premixed with various tristriazolylamino ligands (500 μM); copper-free click reaction: BARAC-biotin (100 μM). Reactions were allowed to proceed for 1 h at room temperature, and analyzed by Western blot using an HRP-conjugated anti-biotin antibody. Structural formulae of tris(triazolylmethyl)amine-based ligands and BARAC-biotin. BTTAA=2-[4-({bis[(1-tert-butyl-1H-1,2,3-triazol-4-yl)methyl]amino}methyl)-1H-1,2,3-triazol-1-yl]acetic acid, BTTES=2-[4-({bis[(1-tert-butyl-1H-1,2,3-triazol-4-yl)methyl]amino}methyl)-1H-1,2,3-triazol-1-yl]ethyl hydrogen sulfate, TBTA=tris[(1-benzyl-1H-1,2,3-triazol-4-yl)methyl]amine, THPTA=tris[(1-hydroxypropyl-1H-1,2,3-triazol-4-yl)methyl]amine, BARAC=biarylazacyclooctynone.
To evaluate the activity of the new ligand-Cu(I) complex and compare the click reactions in the context of biomolecular labeling experiments, the first system used was a recombinant glycoprotein—Programmed Death 1-Immunoglobulin G Fc fusion (PD1-Fc). When expressed in mammalian cells, the Fc region of the recombinant protein is glycosylated and terminated with sialic acids. HEK-293 cells stably expressing PD1-Fc fusion protein were cultured in medium containing 50 μM sialic acid metabolic precursor—peracetylated N-azidoacetylmannosamine (Ac4ManNAz) for 4 days. The target protein was then isolated using protein G (a genetically engineered protein that contains Fc binding domains of protein G) agarose. To probe for the presence of the sialic acid-associated azide, the protein was reacted with biotin-alkyne via the CuAAC or BARAC-biotin via the copper-free click chemistry. For the CuAAC, 100 μM of biotin-alkyne was used as the coupling partner and the ratio of biotin-alkyne, ligand, CuSO4 and sodium ascorbate was held at 1:5:2.5:25, a labeling condition optimized in the lab. The copper-free click chemistry was performed with 100 μM of BARAC-biotin. The reactions were allowed to proceed for one hour and the labeled protein was analyzed by SDS-PAGE and Western blot. As quantified by ImageJ, reactions mediated by BTTES-Cu(I) and BTTAA-Cu(I) provided 2.6- and 2.1-fold stronger signal than the signal afforded by THPTA-Cu(I) for the fusion protein isolated from Ac4ManNAz-treated culture. […]
A general note: Immunoblotting shows a protein as a band on a membrane.

Data set [2] can be described thus: Fluorogenic kinetic assay of CuAAC of 3-azido-7-hydroxy-coumarin and propargyl alcohol. As to conditions: TBTA-Cu(I)-catalyzed reaction, same fluorogenic assay. As to the method:
FIG. 1A-1C. Copper(I)-catalyzed azide-alkyne cycloaddition (CuAAC) is accelerated by Cu(I)-stabilizing ligands. (A) CuAAC of azides and terminal alkynes to form 1,4-disubstituted 1,2,3-triazoles. (B) Structures of CuAAC-accelerating ligands. (C) Conversion-time profiles of CuAAC in the presence/absence of accelerating ligands. Reaction conditions: propargyl alcohol (50 μM), 3-azido-7-hydroxy-coumarin (100 μM), CuSO4 (75 μM), 0.1 M potassium phosphate buffer (pH 7.0)/DMSO 95:5, sodium ascorbate ([…]), rt. Error bars represent the standard deviation of three replicate experiments.
Protocol for Kinetic Measurement of CuAAC of 3-azido-7-hydroxy-coumarin and Propargyl Alcohol […]
Procedure for 200 μL reactions: In a 96-well fluorescence plate, add the reagents in the following order: (1) 40 μL of 500 mM phosphate buffer pH 7.0; (2) 1.0 μL 10 mM propargyl alcohol; (3) 10 μL of DMSO; (4) 6 μL of premixed CuSO4 and ligand ([Cu]=2.5 mM); (5) 1.0 μL 20 mM coumarin-N3; (6) 20 μL of 25 mM sodium ascorbate; (7) Read fluorescence (λex=404 nm, λem=477 nm, RFU) on the Synergy plate reader.

For data set [3] the following is noted: cited from earlier work.
In data set [4] the test system is zebrafish embryos. The following applies: 1 mM CuSO4, 1.5 mM sodium ascorbate, 0.1 mM TBTA ligand; cited from earlier work.
Data set [5] has as its system Jurkat cells. Kind of data set: Live cell labeling of Ac4ManNAl-treated cells, BTTPS-Cu(I) vs BTTP-Cu(I), Alexa Fluor 488-streptavidin and 7-AAD flow cytometry. The format is cell-based, human. As to conditions: for mean fluorescence intensity: 15 min. As to the method: FIG. 12A-12D. Comparison of the efficiency of the BTTPS-Cu(I) and BTTP-Cu(I)-mediated azide-alkyne cycloaddition in labeling sialylated glycoconjugates in live cells. Jurkat cells were cultured in the presence or absence of Ac4ManNAl for 3 days. Cells were then reacted with biotin azide (50 μM) in the presence of sodium ascorbate (2.5 mM), and CuSO4 premixed with ligands BTTPS or BTTP ([ligand]:[CuSO4]=6:1). Reactions were quenched with BCS, stained with Alexa Fluor 488-streptavidin, 7-AAD, and analyzed by flow cytometry. (A) Mean fluorescence intensity (MFI) of cells treated with the BTTPS-Cu(I) or BTTP-Cu(I) catalyst ([CuSO4]=75 μM) in the course of 5-15 min reactions. (B) Percentage of viable cells without cell-membrane damage post the click reactions with the BTTPS-Cu(I) or BTTP-Cu(I) catalyst ([CuSO4]=75 μM) in the course of 5-15 min reactions. (C) MFI of cells treated with the BTTPS-Cu(I) catalyst ([CuSO4]=20-75 μM) in a one-minute reaction. (D) Percentage of viable cells without cell-membrane damage post the click reactions with the BTTPS-Cu(I) catalyst ([Cu]=20-75 μM) in a one-minute reaction.
In the ligand design, sulfation of BTTP is used to generate a negatively charged ligand, BTTPS (3-(4-((bis((1-tert-butyl-1H-1,2,3-triazol-4-yl)methyl)amino)methyl)-1H-1,2,3-triazol-1-yl)propyl hydrogen sulfate), (FIG. 14) to minimize the cellular internalization of the coordinated copper. To evaluate if sulfation confers the ligand the desired property, BTTPS-Cu(I) and BTTP-Cu(I) were compared in live cell labeling experiments. Jurkat cells were metabolically labeled with Ac4ManNAl. The treated cells were reacted with biotin-azide (50 μM) in the presence of BTTPS-Cu(I) or BTTP-Cu(I) for 5-15 min at room temperature (catalyst formulation: [ligand]:[CuSO4]=6:1, [CuSO4]=75 μM). After the reaction was quenched with BCS, the biotinylated cells were incubated with Alexa Fluor 488-streptavidin. The cells were then stained with 7-aminoactinomycin D (7-AAD), a fluorescent molecule with strong affinity for double-stranded DNA, and analyzed by flow cytometry. […] Therefore, healthy and damaged cells can be easily distinguished. […] Greater than 60% cells were still undamaged after treatment with BTTPS-Cu(I) (7-AAD negative), whereas only 26% cells treated with BTTP-Cu(I) reminded normal (FIG. 12b). Furthermore, the labeling temperature also plays a significant role in modulating the Cu-associated toxicity. When both Jurkat cells and the labeling reagents were pre-cooled to 4° C. before triggering the CuAAC, greater than 85% cells remained viable after a 15 min BTTPS-Cu(I)-mediated reaction with high labeling efficiency achieved (mean fluorescence intensity 2200, for reactions performed at 4° C.-room temperature vs 3679, for reactions performed at room temperature).

Structures can show the parent of a compound that is named as a salt.

The values that follow come from US9809560B2, “Ligands and methods for labeling biomolecules in vivo” (Albert Einstein College of Medicine, Inc., priority 2010, dated 2017).

Take “tris[(1-hydroxypropyl-1H-1,2,3-triazol-4-yl)methyl]amine [THPTA]”: the “Western blot labeling signal” value in data set [1] is recorded as “significantly weaker labeling”.

As for biarylazacyclooctynone [BARAC], in data set [1], the “Western blot labeling signal” value is “no detectable signal”.

Consider `CC(C)(C)n1cc(CN(Cc2cn(CC(=O)O)nn2)Cc2cn(C(C)(C)C)nn2)nn1` [BTTAA, 2-(4-((bis((1-tert-butyl-1H-1,2,3-triazol-4-yl)methyl)amino)methyl)-1H-1,2,3-triazol-1-yl)acetic acid], for which the “signal relative to THPTA-Cu(I) (Western blot, ImageJ)” value in data set [1] (biotin-alkyne 100 μM, ligand 500 μM, CuSO4 250 μM, sodium ascorbate 2.5 mM) was 2.1 fold.

With `c1ccc(Cn2cc(CN(Cc3cn(Cc4ccccc4)nn3)Cc3cn(Cc4ccccc4)nn3)nn2)cc1` [TBTA, tris[(1-benzyl-1H-1,2,3-triazol-4-yl)methyl]amine], in data set [2], the “cycloaddition product yield at leveling off” value is < 20%. Further, in data set [3], the water solubility entry is listed as “very poor water solubility”. For the same molecule, the “time by which all embryos were dead” value in data set [4] is reported as ≤ 15 min. Further, the “Western blot labeling signal” value in data set [1] is listed as “no detectable signal”.

For `CC(C)(C)n1cc(CN(Cc2cn(CCCOS(=O)(=O)O)nn2)Cc2cn(C(C)(C)C)nn2)nn1` [BTTPS, 3-(4-((bis((1-tert-butyl-1H-1,2,3-triazol-4-yl)methyl)amino)methyl)-1H-1,2,3-triazol-1-yl)propyl hydrogen sulfate], the results for the mean fluorescence intensity in data set [5] (reactions performed at 4° C.-room temperature) and in data set [5] (reactions performed at room temperature) were 2200 and 3679, respectively. Besides, the “cells undamaged (7-AAD negative)” value in data set [5] (15 min reaction at room temperature, [ligand]:[CuSO4]=6:1, [CuSO4]=75 μM) was “Greater than 60%”. Further, the cells remaining viable entry in data set [5] (cells and reagents pre-cooled to 4° C., 15 min reaction) is reported as “greater than 85%”.
